Series [1] is described as follows: Metabolic stability in human liver microsomes. The format is in vitro ADME. Conditions: 5 µM, NADPH, 37 °C. The protocol: A standard metabolic stability assay was performed in the presence of mouse or human liver microsomes. YC-001 (5 µM) was incubated with the microsomes (0.125 mg mL^−1) resuspended in 0.2 mL of PBS buffer, pH 7.4 composed of 10 mM Na2HPO4, 1.8 mM KH2PO4, 137 mM NaCl, and 2.7 mM KCl. The enzymatic reaction to produce oxidized metabolites was initiated by addition of NADPH (1 mM). Samples were incubated at 37 °C for up to 240 min. Incubation without the cofactor was conducted in parallel to assess NADPH-independent clearance. The reactions were stopped with 0.2 mL of methanol followed by 0.3 mL chloroform. Residual YC-001 was extracted by vigorous shaking. To facilitate phase separation, the samples were spun down for 2 min, 15,000×g. The chloroform fraction was collected, dried down, and the extracted organic compounds were redissolved in 0.2 mL of methanol. To quantify YC-001, the samples were injected onto an Eclipse XDB-C18 column (4.6 × 150 mm, 5 µm) (Agilent Technologies) equilibrated with solvent composed of 30% acetonitrile in water (v/v), and 0.1% formic acid. YC-001 was eluted in a gradient of acetonitrile in water (30–100%) developed within 15 min at a flow rate of 1 mL min^−1, detected at 350 nm, and quantified by correlating peak areas with known quantities of an original synthetic standard. […]
For orientation: Microsomes from liver hold many membrane-bound enzymes, among them those of drug oxidation.

For the next series, the system named is C57BL/6 mice. The experiment in a line: Retinoid cycle analysis: 11-cis-retinyl-oxime recovery after bleaching. The series is classed as in vivo, mouse. Conditions: 200 mg kg^−1 bw i.p. 30 min before 10,000 lux 10 min; vs DMSO. The protocol: To test if treatment with YC-001 affects visual pigment regeneration, we quantified the 11-cis-retinyl-oxime extracted from retinas of C57BL/6 mice after different periods of dark adaptation following exposure to bright light. Mice at 6 weeks of age were administered YC-001 at 200 mg kg^−1 bw via i.p. injection. At 30 min following YC-001 administration, eyes were dilated with 1% tropicamide. Mice then were anesthetized with a cocktail containing 20 mg mL^−1 of ketamine and 1.75 mg mL^−1 of xylazine at a dose of 4 μL g^−1 bw. Anesthetized mice were exposed to bright light with an intensity of 10,000 lux for 10 min to bleach about 90% of the rhodopsin pigment. Mice then were returned to the dark for recovery. Animals then were euthanized at 0, 2, 4, 6 or 24 h after bleaching and recovery in the dark, and their eyes were removed and homogenized in 1 mL of 1:1 PBS:ethanol mixture (v/v) containing 40 mM hydroxylamine. […] 11-cis-Retinyl-oxime released from the regenerated rhodopsin pigments were separated on an Agilent Sil column (5 µm, 4.6 × 250 mm) with an isocratic flow of 10% ethyl acetate in hexanes (1.5 mL min^−1) and detected at 325 nm. Amounts of 11-cis-retinyl-oximes per eye were quantified by normalizing the peak area to an 11-cis-retinyl-oxime standard. 11-cis-Retinyl-oximes were quantified in three eye samples per condition, and the means and s.d.s were calculated.

From article PMC5958115, “A novel small molecule chaperone of rod opsin and its potential therapy for retinal degeneration” (Nature Communications, 2018) come the findings set out here.

Regarding `O=C1OCC(c2ccc(Cl)s2)=C1c1cccs1` [YC-001], in series [1], the “initial clearance in liver microsomes” value is listed as “even higher initial clearance compared to the fast clearance drug, verapamil”. In addition, the “recovery of 11-cis-retinyl-oxime after bleaching” value in the series on C57BL/6 mice is “little difference”.
